What was measured:
Breast cancer cells = test: Cancer cell line growth inhibition (SRB assay); format: cell-based; conditions: Homo sapiens; MDA-MB-468; read-out: Cancer Cell Line GI50 Range MDA-MB-468
[1] = system: colon cancer cells (HCT116); test: Cancer cell line growth inhibition (SRB assay); format: cell-based; conditions: Homo sapiens, HCT-116; read-out: Cancer Cell Line GI50 Range HCT116
TICs (Ovarian 2393A) = test: Ovarian tumor-initiating cell growth inhibition (Alamar Blue); format: cell-based; conditions: 144 h; Ovarian 2393A TICs, 6 days; read-out: Tumor Initiating Cell GI50 Range Ovarain 2393A
human PLK4 = molecular target: T1, human PLK4 (Homo sapiens, UniProt O00444); test: PLK4 inhibition assay (indirect ELISA); format: biochemical; conditions: 15 μM ATP
T1 construct: amino terminal GST fusion of residues 1-391 of human PLK4; made in house; host or cells: E. coli
T1 sequence (O00444 1-391): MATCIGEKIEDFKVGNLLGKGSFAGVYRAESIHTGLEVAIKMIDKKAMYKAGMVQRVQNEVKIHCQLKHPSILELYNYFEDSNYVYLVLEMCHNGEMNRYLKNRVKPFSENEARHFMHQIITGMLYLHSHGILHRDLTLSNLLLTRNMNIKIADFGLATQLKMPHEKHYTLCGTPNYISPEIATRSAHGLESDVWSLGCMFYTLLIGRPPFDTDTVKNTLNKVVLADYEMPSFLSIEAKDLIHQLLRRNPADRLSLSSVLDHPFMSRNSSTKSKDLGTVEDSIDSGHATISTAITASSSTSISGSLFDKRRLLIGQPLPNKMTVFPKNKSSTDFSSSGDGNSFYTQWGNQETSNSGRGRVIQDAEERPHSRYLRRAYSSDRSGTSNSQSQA
Procedure, shortened: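 Dephosphorylated GST-PLK4 (residues 1-391, E. coli; 4 nM) was preincubated 15 min with compound, then reacted 30 min with 15 μM ATP in HEPES pH 7.4, MgCl2, Brij 35 on MBP-coated plates. Phospho-MBP was detected by antibody/HRP ELISA at 450 nm; IC50 from 10-point titration by 4-parameter logistic fit, or single 10 μM % inhibition.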

[2] = system: ovarian cancer cells (PA-1); test: Cancer cell line growth inhibition (SRB assay); format: cell-based; conditions: Homo sapiens, PA-1; read-out: Cancer Cell Line GI50 Range PA-1
TICs (Colon 12) = test: Colon tumor-initiating cell growth inhibition (Alamar Blue); format: cell-based; conditions: 216 h; Colon 12 TICs, 9 days; read-out: Tumor Initiating Cell GI50 Range Colon 12
human TTK = molecular target: T2, human TTK (Homo sapiens, UniProt P33981); test: TTK inhibition assay (indirect ELISA); format: biochemical; conditions: read-out: TTK IC50 Range
T2 construct: amino terminal GST fusion of full length human TTK; purchased Invitrogen
T2 sequence (P33981 1-857): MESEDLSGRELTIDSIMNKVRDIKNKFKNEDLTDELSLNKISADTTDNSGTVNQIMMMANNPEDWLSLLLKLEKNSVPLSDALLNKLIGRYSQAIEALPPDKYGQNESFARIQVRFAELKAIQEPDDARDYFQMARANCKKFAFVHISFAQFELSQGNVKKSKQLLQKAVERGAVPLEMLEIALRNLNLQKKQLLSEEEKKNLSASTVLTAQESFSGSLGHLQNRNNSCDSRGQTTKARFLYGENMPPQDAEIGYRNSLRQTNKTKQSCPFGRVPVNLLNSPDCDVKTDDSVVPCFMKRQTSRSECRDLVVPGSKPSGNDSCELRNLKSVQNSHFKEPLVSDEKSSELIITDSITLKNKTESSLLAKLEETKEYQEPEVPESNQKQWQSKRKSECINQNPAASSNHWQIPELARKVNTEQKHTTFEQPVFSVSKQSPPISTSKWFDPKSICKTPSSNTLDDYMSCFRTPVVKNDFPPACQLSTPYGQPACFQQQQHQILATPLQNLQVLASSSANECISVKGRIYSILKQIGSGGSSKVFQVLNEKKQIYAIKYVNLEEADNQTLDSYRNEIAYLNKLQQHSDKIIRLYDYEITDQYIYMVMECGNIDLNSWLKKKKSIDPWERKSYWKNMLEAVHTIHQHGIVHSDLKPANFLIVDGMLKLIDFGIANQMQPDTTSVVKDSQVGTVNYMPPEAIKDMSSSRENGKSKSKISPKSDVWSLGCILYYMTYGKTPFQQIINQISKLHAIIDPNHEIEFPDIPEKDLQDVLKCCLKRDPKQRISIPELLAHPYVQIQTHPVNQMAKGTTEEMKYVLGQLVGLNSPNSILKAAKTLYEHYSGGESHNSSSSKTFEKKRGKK

With `C[C@@H](O)CN1CCC(Oc2ccc(-c3n[nH]c4ccc(C(=O)N[C@@H](c5ccsc5)C5CCCC5)cc34)cc2)CC1` [Example A222, N-((R)-cyclopentyl(thiophen-3-yl)methyl)-3-(4-((1-((R)-2-hydroxypropyl)piperidin-4-yl)oxy)phenyl)-1H-indazole-5-carboxamide] the GI50 (Breast cancer cells) was 100 to 500 nM, the GI50 [1] was under 100 nM and the GI50 (TICs (Ovarian 2393A)) was 100 to 500 nM. The IC50 (human PLK4) was under 50 nM, the GI50 [2] was under 100 nM and the GI50 (TICs (Colon 12)) was under 100 nM. For the same molecule, the IC50 (human TTK) was under 100 nM.

Work on `CN1C2CCC1CC(Oc1ccc(-c3n[nH]c4ccc(C(=O)N[C@@H](c5ccccc5Cl)C5CC5)cc34)cc1)C2` (stereo partly drawn) [Example A234, N-((R)-(2-chlorophenyl)(cyclopropyl)methyl)-3-(4-(((1R,3R,5S)-8-methyl-8-azabicyclo[3.2.1]octan-3-yl)oxy)phenyl)-1H-indazole-5-carboxamide] yielded a GI50 (Breast cancer cells) of 100 to 500 nM, a GI50 [1] of under 100 nM and a GI50 (TICs (Ovarian 2393A)) of 100 to 500 nM. It also gave an IC50 (human PLK4) of under 50 nM, a GI50 [2] of under 100 nM and a GI50 (TICs (Colon 12)) of 100 to 500 nM. The IC50 (human TTK) was under 100 nM.

Work on `CN1C2CCC1CC(Oc1ccc(-c3n[nH]c4ccc(C(=O)N[C@H](c5ccccc5Cl)C5CC5)cc34)cc1)C2` (stereo partly drawn) [Example A235, N-((S)-(2-chlorophenyl)(cyclopropyl)methyl)-3-(4-(((1R,3R,5S)-8-methyl-8-azabicyclo[3.2.1]octan-3-yl)oxy)phenyl)-1H-indazole-5-carboxamide] yielded a GI50 (Breast cancer cells) of under 100 nM, a GI50 [1] of under 100 nM and a GI50 (TICs (Ovarian 2393A)) of under 100 nM. For the same molecule, the IC50 (human PLK4) was under 50 nM, the GI50 [2] was under 100 nM and the GI50 (TICs (Colon 12)) was under 100 nM. For the same molecule, the IC50 (human TTK) was under 100 nM.

`CN1C2CCC1CC(Oc1ccc(-c3n[nH]c4ccc(C(=O)N[C@@H](c5ccsc5)C5CCCC5)cc34)cc1)C2` (stereo partly drawn) [Example A247, N-((R)-cyclopentyl(thiophen-3-yl)methyl)-3-(4-(((1R,3R,5S)-8-methyl-8-azabicyclo[3.2.1]octan-3-yl)oxy)phenyl)-1H-indazole-5-carboxamide] gave a GI50 (Breast cancer cells) of 100 to 500 nM, a GI50 [1] of 100 to 500 nM and a GI50 (TICs (Ovarian 2393A)) of 100 to 500 nM. For the same molecule, the IC50 (human PLK4) was under 50 nM, the GI50 [2] was 100 to 500 nM and the GI50 (TICs (Colon 12)) was 100 to 500 nM. The IC50 (human TTK) was under 100 nM.

Molecule `CC(C)[C@@H](NC(=O)c1ccc2[nH]nc(-c3ccc(OC4CCN(C)CC4)cc3)c2c1)c1ccccc1Cl` [Example A274, (R)-N-(1-(2-chlorophenyl)-2-methylpropyl)-3-(4-((1-methylpiperidin-4-yl)oxy)phenyl)-1H-indazole-5-carboxamide] has a GI50 (Breast cancer cells) of over 500 nM, a GI50 [1] of 100 to 500 nM and a GI50 (TICs (Ovarian 2393A)) of 100 to 500 nM. It also gave an IC50 (human PLK4) of under 50 nM, a GI50 [2] of 100 to 500 nM and a GI50 (TICs (Colon 12)) of 100 to 500 nM. The IC50 (human TTK) was under 100 nM.

`CC(C)[C@H](NC(=O)c1ccc2[nH]nc(-c3ccc(OC4CC5CCC(C4)N5C)cc3)c2c1)c1ccccc1Cl` (stereo partly drawn) [Example A287, N-((S)-1-(2-chlorophenyl)-2-methylpropyl)-3-(4-(((1R,3R,5S)-8-methyl-8-azabicyclo[3.2.1]octan-3-yl)oxy)phenyl)-1H-indazole-5-carboxamide] gave a GI50 (Breast cancer cells) of under 100 nM, a GI50 [1] of under 100 nM and a GI50 (TICs (Ovarian 2393A)) of 100 to 500 nM. The IC50 (human PLK4) was under 50 nM, the GI50 [2] was under 100 nM and the GI50 (TICs (Colon 12)) was 100 to 500 nM. For the same molecule, the IC50 (human TTK) was under 100 nM.

With `CC(C)[C@@H](NC(=O)c1ccc2[nH]nc(-c3ccc(OC4CC5CCC(C4)N5C)cc3)c2c1)c1ccccc1Cl` (stereo partly drawn) [Example A288, N-((R)-1-(2-chlorophenyl)-2-methylpropyl)-3-(4-(((1R,3R,5S)-8-methyl-8-azabicyclo[3.2.1]octan-3-yl)oxy)phenyl)-1H-indazole-5-carboxamide] the GI50 (Breast cancer cells) was 100 to 500 nM, the GI50 [1] was under 100 nM and the GI50 (TICs (Ovarian 2393A)) was 100 to 500 nM. It also gave an IC50 (human PLK4) of under 50 nM, a GI50 [2] of 100 to 500 nM and a GI50 (TICs (Colon 12)) of 100 to 500 nM. It also gave an IC50 (human TTK) of under 100 nM.

Work on `CC(C)CC(NC(=O)c1ccc2[nH]nc(-c3ccc(N4CCN(C5COC5)CC4)cc3)c2c1)c1ccccc1Cl` (centres unmarked) [Example A298, N-(1-(2-chlorophenyl)-3-methylbutyl)-3-(4-(4-(oxetan-3-yl)piperazin-1-yl)phenyl)-1H-indazole-5-carboxamide] yielded a GI50 (Breast cancer cells) of under 100 nM, a GI50 [1] of under 100 nM and a GI50 (TICs (Ovarian 2393A)) of under 100 nM. For the same molecule, the IC50 (human PLK4) was under 50 nM, the GI50 [2] was under 100 nM and the GI50 (TICs (Colon 12)) was under 100 nM. The IC50 (human TTK) was under 100 nM.

`CC(C)C[C@H](NC(=O)c1ccc2[nH]nc(-c3ccc(N4CCN(C5COC5)CC4)cc3)c2c1)c1ccccc1Cl` [Example A299, (S)-N-(1-(2-chlorophenyl)-3-methylbutyl)-3-(4-(4-(oxetan-3-yl)piperazin-1-yl)phenyl)-1H-indazole-5-carboxamide] was tested, and the GI50 (Breast cancer cells) was under 100 nM, the GI50 [1] was under 100 nM and the GI50 (TICs (Ovarian 2393A)) was under 100 nM. The IC50 (human PLK4) was under 50 nM, the GI50 [2] was under 100 nM and the GI50 (TICs (Colon 12)) was under 100 nM. It also gave an IC50 (human TTK) of under 100 nM.

`CC(C)[C@H](NC(=O)c1ccc2[nH]nc(-c3ccc(OC4CC5CCC(C4)N5C=O)cc3)c2c1)c1ccccc1Cl` (some centres unmarked) [Example A333] showed a GI50 [1] of under 100 nM, a GI50 (TICs (Ovarian 2393A)) of under 100 nM and an IC50 (human PLK4) of under 50 nM. For the same molecule, the GI50 [2] was under 100 nM, the GI50 (TICs (Colon 12)) was under 100 nM and the IC50 (human TTK) was under 100 nM.

`CC(C)[C@H](NC(=O)c1ccc2[nH]nc(-c3ccc(OC4CCN(C=O)CC4)cc3)c2c1)c1ccccc1Cl` [Example A334, (S)-N-(1-(2-chlorophenyl)-2-methylpropyl)-3-(4-((1-formylpiperidin-4-yl)oxy)phenyl)-1H-indazole-5-carboxamide] was tested, and the GI50 [1] was under 100 nM, the GI50 (TICs (Ovarian 2393A)) was under 100 nM and the IC50 (human PLK4) was under 50 nM. The GI50 [2] was under 100 nM, the GI50 (TICs (Colon 12)) was under 100 nM and the IC50 (human TTK) was under 100 nM.

In the case of `CC(C)[C@H](NC(=O)c1ccc2[nH]nc(-c3ccc(OC4CC5CCC(C4)N5CCO)cc3)c2c1)c1ccccc1Cl` (stereo partly drawn) [Example A337, N-((S)-1-(2-chlorophenyl)-2-methylpropyl)-3-(4-(((1R,3R,5S)-8-(2-hydroxyethyl)-8-azabicyclo[3.2.1]octan-3-yl)oxy)phenyl)-1H-indazole-5-carboxamide], the GI50 (Breast cancer cells) is reported as under 100 nM, the GI50 [1] is reported as under 100 nM and the GI50 (TICs (Ovarian 2393A)) is reported as under 100 nM. It also gave an IC50 (human PLK4) of under 50 nM, a GI50 [2] of under 100 nM and a GI50 (TICs (Colon 12)) of under 100 nM. For the same molecule, the IC50 (human TTK) was under 100 nM.

`CC(C)C[C@H](NC(=O)c1ccc2[nH]nc(-c3ccc(OC4CC5CCC(C4)N5C=O)cc3)c2c1)c1ccccn1` (stereo partly drawn) [Example A358, 3-(4-(((1R,3R,5S)-8-formyl-8-azabicyclo[3.2.1]octan-3-yl)oxy)phenyl)-N-((S)-3-methyl-1-(pyridin-2-yl)butyl)-1H-indazole-5-carboxamide] showed a GI50 (Breast cancer cells) of under 100 nM, a GI50 [1] of under 100 nM and a GI50 (TICs (Ovarian 2393A)) of under 100 nM. The IC50 (human PLK4) was under 50 nM, the GI50 [2] was under 100 nM and the GI50 (TICs (Colon 12)) was under 100 nM. It also gave an IC50 (human TTK) of under 100 nM.

From patent US9580390B2, “Indazole compounds as kinase inhibitors and method of treating cancer with same” (University Health Network, priority 2011, dated 2017)
